In PMC12785651, “The Role of Active Site Hydrophobic Interactions in Facilitating Catalysis in Human Terminal Deoxynucleotidyl Transferase” (International Journal of Molecular Sciences, 2025):

Experiments:
[1] = target: T1, TdT (human terminal deoxynucleotidyl transferase, hTdT) (Homo sapiens, UniProt P04053, F404A); test: microscale thermophoresis (Monolith NT.[…]); type: binding; details: 50 mM Tris-HCl pH 8.0, 5 mM MnCl2, 37 °C; no primer listed; Hill coefficient fixed at 2; labelled compound (fluorescein); read-out: Kd, μM / Flu-dUTP
T1 construct: gene DNTT; expression per earlier publication

[2] = target: T2, TdT (human terminal deoxynucleotidyl transferase, hTdT) (Homo sapiens, UniProt P04053); test: microscale thermophoresis (Monolith NT.[…]); type: binding; details: 50 mM Tris-HCl pH 8.0, 5 mM MnCl2, 37 °C; no primer listed; Hill coefficient fixed at 2; labelled compound (fluorescein); read-out: Kd, μM / Flu-dUTP
T2 construct: gene DNTT; expression per earlier publication

[3] = target: T3, TdT (human terminal deoxynucleotidyl transferase, hTdT) (Homo sapiens, UniProt P04053, F404W); test: microscale thermophoresis (Monolith NT.[…]); type: binding; details: 50 mM Tris-HCl pH 8.0, 5 mM MnCl2, 37 °C; no primer listed; Hill coefficient fixed at 2; labelled compound (fluorescein); read-out: Kd, μM / Flu-dUTP
T3 construct: gene DNTT; expression per earlier publication

[4] = target: T4, TdT (human terminal deoxynucleotidyl transferase, hTdT) (Homo sapiens, UniProt P04053, L397A); test: microscale thermophoresis (Monolith NT.[…]); type: binding; details: 50 mM Tris-HCl pH 8.0, 5 mM MnCl2, 37 °C; no primer listed; Hill coefficient fixed at 2; labelled compound (fluorescein); read-out: Kd, μM / Flu-dUTP
T4 construct: gene DNTT; expression per earlier publication

[5] = target: T5, TdT (human terminal deoxynucleotidyl transferase, hTdT) (Homo sapiens, UniProt P04053, F400A); test: microscale thermophoresis (Monolith NT.[…]); type: binding; details: 50 mM Tris-HCl pH 8.0, 5 mM MnCl2, 37 °C; no primer listed; Hill coefficient fixed at 2; labelled compound (fluorescein); read-out: Kd, μM / Flu-dUTP
T5 construct: gene DNTT; expression per earlier publication

TdT F400A = TdT F400A (human, UniProt P04053 1-509, F400A); test: EMSA; 5 mM MgCl2; Hill h fixed at 2; EMSA: 50 mM Tris-HCl pH 8.0, 5 mM MgCl2, 7% glycerol; 0.5 uM FAM-M44, 0.06-10 uM protein; 10 min at 37 C then 5 min at 0 C; gel at 4 C; details: protein: recombinant; chain copies: 2; label: 5'-FAM; single strand
TdT WT = TdT WT (human, UniProt P04053 1-509); test: as above; details: protein: recombinant; chain copies: 2; label: 5'-FAM; single strand
TdT F404A = TdT F404A (human, UniProt P04053 1-509, F404A); test: as above; details: protein: recombinant; chain copies: 2; label: 5'-FAM; single strand
TdT L397A = TdT L397A (human, UniProt P04053 1-509, L397A); test: as above; details: protein: recombinant; chain copies: 2; label: 5'-FAM; single strand
TdT F404W = TdT F404W (human, UniProt P04053 1-509, F404W); test: as above; details: protein: recombinant; chain copies: 2; label: 5'-FAM; single strand
Chain of TdT F404W (P04053 whole entry F404W): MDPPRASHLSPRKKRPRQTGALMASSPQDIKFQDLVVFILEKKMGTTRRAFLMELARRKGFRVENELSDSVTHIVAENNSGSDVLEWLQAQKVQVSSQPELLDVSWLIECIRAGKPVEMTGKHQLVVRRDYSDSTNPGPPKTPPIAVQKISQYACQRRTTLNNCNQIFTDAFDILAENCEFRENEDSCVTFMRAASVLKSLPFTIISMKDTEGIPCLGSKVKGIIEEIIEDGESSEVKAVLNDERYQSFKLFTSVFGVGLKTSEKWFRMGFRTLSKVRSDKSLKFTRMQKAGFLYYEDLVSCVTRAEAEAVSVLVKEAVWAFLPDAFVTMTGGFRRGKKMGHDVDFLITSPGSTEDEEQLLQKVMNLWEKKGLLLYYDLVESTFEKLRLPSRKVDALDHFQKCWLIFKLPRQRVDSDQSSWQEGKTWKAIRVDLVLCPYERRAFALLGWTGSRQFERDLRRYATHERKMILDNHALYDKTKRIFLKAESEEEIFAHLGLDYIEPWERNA

T5 sequence (P04053 whole entry F400A): as the sequence (P04053 whole entry F404W) above, with F400A, W404F counted along it
Chain of TdT F400A (P04053 whole entry F400A): as the sequence (P04053 whole entry F404W) above, with F400A, W404F counted along it
T2 sequence (P04053 whole entry): as the sequence (P04053 whole entry F404W) above, with W404F counted along it
Chain of TdT WT (P04053 whole entry): as the sequence (P04053 whole entry F404W) above, with W404F counted along it
T3 sequence (P04053 whole entry F404W): as the sequence (P04053 whole entry F404W) above
T1 sequence (P04053 whole entry F404A): as the sequence (P04053 whole entry F404W) above, with W404A counted along it
Chain of TdT F404A (P04053 whole entry F404A): as the sequence (P04053 whole entry F404W) above, with W404A counted along it
Chain of TdT L397A (P04053 whole entry L397A): as the sequence (P04053 whole entry F404W) above, with L397A, W404F counted along it
T4 sequence (P04053 whole entry L397A): as the sequence (P04053 whole entry F404W) above, with L397A, W404F counted along it

| Molecule | Kd [1] [µM] | Kd [2] [µM] | Kd [3] [µM] | Kd [4] [µM] | Kd [5] [µM] | Kd (TdT F400A) [nM] | Kd (TdT WT) [nM] | Kd (TdT F404A) [nM] | Kd (TdT L397A) [nM] | Kd (TdT F404W) [nM] |
| --- | --- | --- | --- | --- | --- | --- | --- | --- | --- | --- |
| Flu-dUTP | 1.5 ± 0.2 | 0.9 ± 0.1 | 1 ± 0.1 | 1.5 ± 0.2 | 1.1 ± 0.1 |  |  |  |  |  |
| ATGCTATGGATTGATGTGACTAAGGTTGGAATGATGTGAAGAGA (ssDNA) [FAM-M44] |  |  |  |  |  | 980 ± 70 | 880 ± 80 | 1100 ± 90 | 970 ± 80 | 1000 ± 100 |
